The text below walks through data of publication PMC12195250, “Synthesis, Biological Evaluation, Molecular Dynamics, and QM-MM Calculation of Spiro-Acridine Derivatives Against Leishmaniasis” (Microorganisms, 2025).

Test [1] relates to L. infantum promastigotes (Strain MHOM/BR/70/BH46). In words: Anti-promastigote effect, Neubauer chamber counting. The conditions noted are these: 72 h incubation, read-out: L. infantum IC50PRO. Type of test: cell-based, Leishmania infantum. Here is the method:
The promastigote cultures of L. infantum (Strain MHOM/BR/70/BH46) and L. amazonensis (Strain MHOM/BR/PH8) were kept in Schneider medium (Sigma-Aldrich, St. Louis, MO, USA) supplemented with 20% fetal bovine serum (FBS) and 1% streptomycin/penicillin in a B.O.D. incubator (J. Prolab, model JP. 100 LBCM/CPAM) at 26 °C. The promastigote strains were used in the exponential growth phase in all stages for experimental purposes.
The Neubauer chamber method was used to assess the inhibitory concentrations of the synthesized spiro-acridines capable of eliminating 50% of the promastigotes in cultures of L. amazonensis and L. infantum (IC50) strains. Promastigotes from both species were collected, counted, and diluted in Schneider’s medium (Sigma-Aldrich, St. Louis, MO, USA) supplemented with 20% fetal bovine serum (FBS) at a final concentration of 1 × 10^6 cells/mL. The evaluated promastigotes were then exposed to different concentrations of the tested compounds (10, 5, 2.5, 1.25, and 0.625 μg/mL). The positive control used the commercial drug Amphotericin B®, while the negative control consisted of promastigotes incubated in Schneider’s medium alone. After 72 h of incubation at 25 °C, culture growth was observed by counting the viable cells using a Neubauer chamber and calculated using the following Equation (1): No. Leishmania/mL = No. of cells counted × No. of Neubauer chamber(1) quadrants × the dilution used × 10^4 (Neubauer chamber correction factor)
The concentration parameter that inhibits 50% of parasite growth (IC50) was used to estimate the growth inhibition of the promastigote species of Leishmania sp. Thus, IC50 was determined by linear regression analysis with SPSS 8.0 software for Windows. Each test was performed in two independent experiments, with different cultures and in technical triplicate.

For test [2], the system named is J774 macrophages infected with L. amazonensis amastigotes. In words: Cytokine profile by cytometry bead assay (CBA). It counts as cell-based. The conditions noted are these: 24 h; for IL-6 expression: 8 µg/mL, versus untreated infected macrophages; for modulation of the IL-2 response: basal or infected macrophages, 2, 4 and 8 µg/mL; for IL-4 expression / IL-10 expression / TNF-α expression: infected macrophages, 2, 4 and 8 µg/mL; for TNF-α expression: versus untreated infected. Here is the method: The assessment of the influence of spiro-acridine derivatives on the cytokine profile of immunological responses was carried out by the quantification of the cytokines IL-2, IL-4, IL-6, IL-10, IL-17A, INF-γ, and TNF-α in supernatants of cell cultures of J774 macrophages infected with L. amazonensis amastigotes through cytometry bead assay (CBA), according to the manufacturer’s instructions (BD Bioscience, Franklin Lakes, NJ, USA). The cells were adhered to a plate, infected with amastigotes of L. amazonensis, and treated with the spiro-acridines under analysis in the following concentrations: 2, 4, and 8 μg/mL. After the 24-h treatment period, 50 μL of the supernatant from each well was transferred to a conical tube, while 50 μL of the capture bead mixture and 50 μL of the detection reagent were added. The samples were incubated for 2 h at room temperature and protected from light. After incubation, 500 μL of washing buffer was added to each tube, followed by centrifugation for 5 min. The supernatant was discarded, and 300 μL of washing buffer was added. A calibration curve containing the following concentrations of each cytokine was added to the experiment: 0, 20, 40, 80, 156, 312.5, 625, 1250, 2500, and 5000 pg/mL. Uninfected and untreated macrophages were used as the negative control, while the untreated macrophages infected with L. amazonensis were used as the positive control. The fluorescence intensity in each sample was captured on the BD LRS II FORTESSA flow cytometer using the DIVA program version 7 (BD Bioscience), and the fluorescence data was processed using the FCAP array program version 3 (BD Bioscience). The experiments were performed in triplicate.

Test [3] relates to macrophages infected with L. amazonensis. In words: Reactive oxygen and nitrogen species (DCF-DA, DAF-FM diacetate). It counts as cell-based. The note with it: 24 h; for expression of ROS: 2, 4 and 8 µg/mL, DCF-DA, compared to basal macrophage. The text has this:
The assay for the quantification of reactive oxygen species (ROS) and reactive nitrogen species (RNS) was executed using, respectively, the probe 2′,7′-dichlorodihydrofluorescein diacetate (DCF-DA) and 4-amino-5-methylamino-2′,7′-difluorofluorescein diacetate (DAF-FM diacetate), which produce 2–7-dichlorofluorescein (DCF) and 4-amino-5-methylamino-2′,7′-difluorofluorescein (DAF-FM) in the presence of the respective reactive species. Therefore, initially, macrophages were adhered to and infected with L. amazonensis in a plate, followed by the treatment with AMTAC-02 or ACMD-03 at concentrations of 2, 4, and 8 μg/mL. Subsequently, following a 24-h treatment period, the plates were incubated for 30 min with the DCF-DA probe diluted in saline (pH 7.2) and for 1 h with the DAF-FM diacetate probe diluted in saline (pH 7.2), respectively, in a humid chamber at 37 °C with 5% CO2, protected from light. The cells were washed twice with saline (pH 7.2) at room temperature and then resuspended in 200 µL of saline under the same conditions. The negative control comprised uninfected and untreated macrophages, while the positive control comprised untreated macrophages infected with L. amazonensis. Afterward, the fluorescence intensity in each sample was captured using the BD LRS II FORTESSA flow cytometer and the DIVA program version 7 (BD Bioscience). The mean fluorescence intensity (MFI) was then obtained by processing the data in FlowJoTM version 10.6.1. The experiment was performed in triplicate, and the results were calculated as the difference in MFI in each group.

The test system of test [4] is L. amazonensis axenic amastigotes. In words: Anti-amastigote effect on axenic amastigotes, MTT. Type of test: cell-based, Leishmania amazonensis. The conditions noted are these: L. amazonensis axenic amastigotes, 24 h, MTT. Here is the method:
The amastigote forms of L. amazonensis were maintained under cryopreservation until they were transferred to an NNN medium (Novy–MacNeal–Nicolle) and incubated at 26 °C until the parasites reached the log growth phase. Subsequently, the suspension was transferred to Schneider culture medium (Sigma-Aldrich, St. Louis, MO, USA), supplemented with 20% inactivated fetal bovine serum and 0.2% gentamicin sulfate at 26 °C, causing the parasites to return to the log growth phase. The cultures were then maintained at 37 °C, producing a growth curve and the formation of the axenic amastigote strains.
The concentrations of the compounds AMTAC-02 and ACMD-03 capable of eliminating 50% of the cells in the cultures of L. amazonensis amastigotes (IC50) were determined using the MTT [3-(4,5-dimethylthiazol-2-yl)-2,5-diphenyltetrazolium bromide] (Sigma-Aldrich) reagent. In a 96-well plate, the assay was initiated by diluting both compounds to concentrations of 2, 4, 8, 16, and 32 μg/mL and 2.0 × 10^5 axenic amastigotes per well. The plates were incubated at 37 °C for 24 h. Then, 10 μL of MTT was added per well, and the cultures were re-incubated for 4 h. Subsequently, 50 μL of dimethyl sulfoxide was added to each well to solubilize the formazan crystals formed. The absorbances were measured using a SpectraMAX GeminiXS plate spectrophotometer (Molecular Devices LLC) at a wavelength of 570 nm. The negative control consisted of untreated cells, while the positive control was assessed by incubating the axenic amastigotes with the reference drug Amphotericin B® [13].

Entries after “also recorded” stand apart in the source; their conditions may differ. Read-outs that look alike come from different tables or passages of the source.

As for `N#CC1=CC2(c3ccccc3Nc3ccccc32)N(c2ccc(Cl)cc2)C1=O` [ACMD-03, (E)1′-(4-chlorophenyl)-5′-oxo-1′, 5′-dihydro-10H-spiro{acridine-9,2′-pyrrole]-4′-carbonitrile], the IC50 in test [1] turned out to be 7.82 µM. Moreover, in test [2], the IL-6 expression result is “significant decrease in IL-6 expression”; the “modulation of the IL-2 response” value was “did not demonstrate a modulation of the IL-2 response”; the IL-4 expression result was “Neither of the two molecules significantly influenced IL-4 expression”; the IL-10 expression result is “significantly increased the expression of IL-10 at concentrations of 4 and 8 µg/mL”. Moreover, in test [2], the TNF-α expression entry was “significant reduction in TNF-α expression”. The “IL-17A level (Th17 response)” value in test [2] (versus basal and parasite-infected macrophages) is on record as “significant increase in this interleukin at a concentration of 4 µg/mL”. Besides, in test [3], the “expression of ROS” value is “significantly increased ROS expression”. The “expression of RNS” value in test [3] (DAF-FM diacetate, versus infected macrophage) is “intensified RNS expression; also recorded: significantly increased (* p < 0.05) RNS at a concentration of 2 µg/mL”. The compound further returned an IC50 in test [4] of 10.5 µM.
As for `COc1ccc(/C=N/N2C(=O)C(C#N)=CC23c2ccccc2Nc2ccccc23)cc1` [AMTAC-02, (E)-1′-((4-methoxybenzylidene)amino)-5′-oxo-1′,5′-dihydro-10H-spiro[acridine-9,2′-pyrrole]-4′-carbonitrile], the IC50 in test [1] (Leishmania infantum) worked out at 2.22 µM. For the same compound, in test [2], the IL-6 expression result is given as “significant decrease in IL-6 expression”, the “modulation of the IL-2 response” value is listed as “did not demonstrate a modulation of the IL-2 response”, the IL-4 expression entry was “Neither of the two molecules significantly influenced IL-4 expression” and the IL-10 expression entry was “no significant increase in IL-10 expression”. In addition, the TNF-α expression result in test [2] was “significant reduction in TNF-α expression”. In addition, the “expression of ROS” value in test [3] is “significantly increased ROS expression”. In test [4], this compound yielded an IC50 of 13.5 µM. Moreover, the IC50 in test [4] (Leishmania amazonensis) was 10.5 to 13.5 µM.
